What was measured:
[1] = test system: Escherichia coli; assay: Antibacterial activity against Escherichia coli infected in microbiologically evaluable patient with UTI assessed as cure rate at 250 mg, iv qd for 10 days measured at test-of-cure visit; format: functional
[2] = test system: Escherichia coli; assay: Antibacterial activity against levofloxacin-resistant Escherichia coli infected in microbiologically evaluable patient with UTI assessed as cure rate at 250 mg, iv qd for 10 days measured at test-of-cure visit; format: functional
[3] = test system: Escherichia coli; assay: Antibacterial activity against levofloxacin-resistant Escherichia coli infected in clinically evaluable patient with UTI assessed as cure rate at 250 mg, iv qd for 10 days measured at test-of-cure visit; format: functional
[4] = test system: Klebsiella pneumoniae; assay: Antibacterial activity against Klebsiella pneumoniae infected in microbiologically evaluable patient with UTI assessed as cure rate at 250 mg, iv qd for 10 days measured at test-of-cure visit; format: functional
[5] = test system: Proteus mirabilis; assay: Antibacterial activity against Proteus mirabilis infected in microbiologically evaluable patient with UTI assessed as cure rate at 250 mg, iv qd for 10 days measured at test-of-cure visit; format: functional
[6] = test system: Escherichia coli; assay: Antibacterial activity against Escherichia coli isolated from patient with urinary tract infection receiving drug at 250 mg, iv qd for 10 days measured after post drug therapy; format: functional; details: Urine, 240 h
[7] = test system: Klebsiella pneumoniae; assay: Antibacterial activity against Klebsiella pneumoniae isolated from patient with urinary tract infection receiving drug at 250 mg, iv qd for 10 days measured after post drug therapy; format: functional; details: Urine, 240 h
[8] = test system: Proteus mirabilis; assay: Antibacterial activity against Proteus mirabilis isolated from patient with urinary tract infection receiving drug at 250 mg, iv qd for 10 days measured after post drug therapy; format: functional; details: Urine, 240 h
[9] = test system: Pseudomonas aeruginosa; assay: Antibacterial activity against Pseudomonas aeruginosa isolated from patient with urinary tract infection receiving drug at 250 mg, iv qd for 10 days measured after post drug therapy; format: functional; details: Urine, 240 h
[10] = test system: Enterococcus faecalis; assay: Antibacterial activity against levofloxacin-resistant Enterococcus faecalis
[11] = test system: Escherichia coli; assay: Antibacterial activity against levofloxacin-resistant Escherichia coli; format: functional
[12] = test system: Proteus mirabilis; assay: Antibacterial activity against levofloxacin-resistant Proteus mirabilis; format: functional
[13] = test system: Pseudomonas aeruginosa; assay: Antibacterial activity against levofloxacin-resistant Pseudomonas aeruginosa
[14] = test system: Homo sapiens; assay: Treatment emergent adverse event in intent-to-treat patient with complicated urinary tract infection assessed as headache at 250 […], iv qd for 10 days; format: ADME, organism-based, Urine; set-up: route intravenous; details: in vivo, 240 h
[15] = test system: Homo sapiens; assay: Treatment emergent adverse event in intent-to-treat patient with complicated urinary tract infection assessed as constipation at 250 […], iv qd for 10 days; format: organism-based; set-up: route intravenous; details: in vivo, 240 h
[16] = test system: Homo sapiens; assay: Treatment emergent adverse event in intent-to-treat patient with complicated urinary tract infection assessed as diarrhea at 250 […], iv qd for 10 days; format: organism-based; set-up: route intravenous; details: in vivo, 240 h
[17] = test system: Homo sapiens; assay: Treatment emergent adverse event in intent-to-treat patient with complicated urinary tract infection assessed as vomiting at 250 […], iv qd for 10 days; format: ADME, organism-based, Urine; set-up: route intravenous; details: in vivo, 240 h
[18] = test system: Homo sapiens; assay: Treatment emergent adverse event in intent-to-treat patient with complicated urinary tract infection assessed as upper abdominal pain at 250 […], iv qd for 10 days; format: ADME, organism-based, Urine; set-up: route intravenous; details: in vivo, 240 h
[19] = test system: Homo sapiens; assay: Treatment emergent adverse event in intent-to-treat patient with complicated urinary tract infection assessed as nausea at 250 […], iv qd for 10 days; format: ADME, organism-based, Urine; set-up: route intravenous; details: in vivo, 240 h
[20] = test system: Homo sapiens; assay: Treatment emergent adverse event in intent-to-treat patient with complicated urinary tract infection assessed as phlebitis at 250 […], iv qd for 10 days; format: organism-based; set-up: route intravenous; details: in vivo, 240 h
[21] = test system: Homo sapiens; assay: Treatment emergent adverse event in intent-to-treat patient with complicated urinary tract infection assessed as insomnia at 250 […], iv qd for 10 days; format: ADME, organism-based, Urine; set-up: route intravenous; details: in vivo, 240 h
[22] = test system: Homo sapiens; assay: Treatment emergent adverse event in intent-to-treat patient with complicated urinary tract infection assessed as urinary tract infection at 250 […], iv qd for 10 days; format: ADME, organism-based; set-up: route intravenous; details: in vivo, 240 h
[23] = test system: Homo sapiens; assay: Treatment emergent adverse event in intent-to-treat patient with complicated urinary tract infection assessed as asymptomatic bacteriuria at 250 […], iv qd for 10 days; format: organism-based, Urine; set-up: route intravenous; details: in vivo, 240 h
[24] = test system: Homo sapiens; assay: Treatment emergent adverse event in intent-to-treat patient with complicated urinary tract infection assessed as back pain at 250 […], iv qd for 10 days; format: organism-based; set-up: route intravenous; details: in vivo, 240 h
[25] = test system: Homo sapiens; assay: Treatment emergent adverse event in intent-to-treat patient with complicated urinary tract infection assessed as hypokalemia at 250 […], iv qd for 10 days; format: ADME, organism-based, Urine; set-up: route intravenous; details: in vivo, 240 h
[26] = test system: Homo sapiens; assay: Treatment emergent adverse event in intent-to-treat patient with complicated urinary tract infection assessed as abdominal pain at 250 […], iv qd for 10 days; format: organism-based; set-up: route intravenous; details: in vivo, 240 h
[27] = test system: Homo sapiens; assay: Treatment emergent adverse event in intent-to-treat patient with complicated urinary tract infection assessed as >=1 adverse event at 250 […], iv qd for 10 days; format: organism-based, Urine; set-up: dose 250 mg/kg, route intravenous; details: in vivo, 240 h
[28] = test system: Homo sapiens; assay: Drug related treatment emergent adverse event in intent-to-treat patient with complicated urinary tract infection assessed as >=1 adverse event at 250 […], iv qd for 10 days; format: toxicity, organism-based; set-up: dose 250 mg/kg, route intravenous; details: in vivo, 240 h
[29] = test system: Homo sapiens; assay: Drug related treatment emergent adverse event in intent-to-treat patient with complicated urinary tract infection assessed as headache at 250 […], iv qd for 10 days; format: toxicity, organism-based, Urine; set-up: dose 250 […], route intravenous; details: in vivo, 240 h
[30] = test system: Homo sapiens; assay: Drug related treatment emergent adverse event in intent-to-treat patient with complicated urinary tract infection assessed as diarrhea at 250 […], iv qd for 10 days; format: toxicity, organism-based; set-up: dose 250 […], route intravenous; details: in vivo, 240 h
[31] = test system: Homo sapiens; assay: Drug related treatment emergent adverse event in intent-to-treat patient with complicated urinary tract infection assessed as upper abdominal pain at 250 […], iv qd for 10 days; format: toxicity, organism-based; set-up: dose 250 […], route intravenous; details: in vivo, 240 h
[32] = test system: Homo sapiens; assay: Drug related treatment emergent adverse event in intent-to-treat patient with complicated urinary tract infection assessed as nausea at 250 […], iv qd for 10 days; format: toxicity, organism-based, Urine; set-up: dose 250 […], route intravenous; details: in vivo, 240 h
[33] = test system: Homo sapiens; assay: Drug related treatment emergent adverse event in intent-to-treat patient with complicated urinary tract infection assessed as phlebitis at 250 […], iv qd for 10 days; format: toxicity, organism-based, Urine; set-up: dose 250 […], route intravenous; details: in vivo, 240 h

C[C@H]1COc2c(N3CCN(C)CC3)c(F)cc3c(=O)c(C(=O)O)cn1c23.C[C@H]1COc2c(N3CCN(C)CC3)c(F)cc3c(=O)c(C(=O)O)cn1c23.O [LEVOFLOXACIN]
Activity [1]: 87.2%
Activity [2]: 29%
Activity [3]: 33%
Activity [4]: 62.5%
Activity [5]: 86.7%
MIC [6]: 0.25 µg/mL
MIC [7]: 2 µg/mL
MIC [8]: 0.25 µg/mL
MIC [9]: 0.25 µg/mL
MIC [10]: 16 µg/mL
MIC [11]: 32 µg/mL
MIC [12]: 32 µg/mL
MIC [13]: 32 µg/mL
Activity [14]: 14.5%
Activity [15]: 4.8%
Activity [16]: 9.9%
Activity [17]: 4.3%
Activity [18]: 3.5%
Activity [19]: 5.9%
Activity [20]: 4%
Activity [21]: 3%
Activity [22]: 1.6%
Activity [23]: 1.1%
Activity [24]: 4.6%
Activity [25]: 3.5%
Activity [26]: 3.5%
Activity [27]: 60%
Activity [28]: 25%
Activity [29]: 2.7%
Activity [30]: 5.9%
Activity [31]: 2.2%
Activity [32]: 1.6%
Activity [33]: 3%
